Source: ChEMBL document CHEMBL1131987, “Structure-activity studies on a novel series of cholinergic channel activators based on a heteroaryl ether framework” (Bioorg Med Chem Lett, 1999)

These compounds were tested against Neuronal acetylcholine receptor; alpha4/beta2 (Rattus norvegicus, UniProt P09483+P12390) (assay: Nicotinic acetylcholine receptor binding activity was determined by ability to displace [3H]- (-) cytisine binding from whole rat brain synaptic membranes.).
Chain of Neuronal acetylcholine receptor; alpha4/beta2 (P09483 whole entry): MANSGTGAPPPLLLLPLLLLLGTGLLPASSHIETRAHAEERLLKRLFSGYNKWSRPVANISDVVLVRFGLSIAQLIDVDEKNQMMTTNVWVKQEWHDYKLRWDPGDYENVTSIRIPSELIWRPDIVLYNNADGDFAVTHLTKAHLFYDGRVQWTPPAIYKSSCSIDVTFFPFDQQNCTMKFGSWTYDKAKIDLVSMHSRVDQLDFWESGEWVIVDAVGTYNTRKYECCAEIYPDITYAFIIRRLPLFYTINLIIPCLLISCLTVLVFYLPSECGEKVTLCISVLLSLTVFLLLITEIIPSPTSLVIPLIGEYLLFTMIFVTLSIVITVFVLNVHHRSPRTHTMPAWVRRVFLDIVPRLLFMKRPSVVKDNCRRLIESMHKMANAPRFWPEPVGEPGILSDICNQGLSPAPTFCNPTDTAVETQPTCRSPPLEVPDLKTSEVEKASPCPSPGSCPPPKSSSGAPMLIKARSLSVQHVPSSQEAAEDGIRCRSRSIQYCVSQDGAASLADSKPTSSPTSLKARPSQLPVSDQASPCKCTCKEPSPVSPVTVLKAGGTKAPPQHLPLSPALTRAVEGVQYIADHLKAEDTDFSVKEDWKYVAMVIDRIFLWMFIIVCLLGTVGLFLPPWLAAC
Chain of Neuronal acetylcholine receptor; alpha4/beta2 (P12390 whole entry): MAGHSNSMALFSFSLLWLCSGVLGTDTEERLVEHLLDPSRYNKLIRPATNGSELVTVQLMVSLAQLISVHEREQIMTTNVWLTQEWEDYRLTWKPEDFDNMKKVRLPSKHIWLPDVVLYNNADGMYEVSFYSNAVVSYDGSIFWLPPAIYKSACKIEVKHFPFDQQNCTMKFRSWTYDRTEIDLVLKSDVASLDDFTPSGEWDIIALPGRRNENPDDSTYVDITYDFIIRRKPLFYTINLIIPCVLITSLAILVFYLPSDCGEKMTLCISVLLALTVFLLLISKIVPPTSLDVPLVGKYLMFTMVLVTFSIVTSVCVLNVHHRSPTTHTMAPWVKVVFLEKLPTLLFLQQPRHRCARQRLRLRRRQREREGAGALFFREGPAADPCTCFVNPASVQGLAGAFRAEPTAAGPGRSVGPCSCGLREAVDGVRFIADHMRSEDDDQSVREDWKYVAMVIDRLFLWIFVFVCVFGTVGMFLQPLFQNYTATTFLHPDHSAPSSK

Compared with `c1ncc(OC[C@@H]2CCN2)cn1`, `CN1CC[C@H]1COc1cncnc1` is 50-fold higher in Ki: 0.13 nM for the first, 6.54 nM for the second. The first binds more tightly here.

Compared with `CN1CC[C@H](Oc2cccnc2)C1`, `CN1CC[C@@H](Oc2cccnc2)C1` is 1.7-fold higher in Ki: 2.67 nM for the first, 4.44 nM for the second.

First: CN1CCC[C@H]1COc1cnccn1
Second: CN1CCC[C@@H]1COc1cnccn1
The Ki of the first is 25-fold lower: 16.3 nM for the first, 406 nM for the second. The first binds more tightly here.

First: CN1CCC[C@H]1COc1ncccn1
Second: CN1CCC[C@H]1COc1ccccn1
The Ki of the first is 2.5-fold higher: 1220 nM for the first, 495 nM for the second. The second binds more tightly here.

Compared with `Clc1ccc(OC[C@@H]2CCN2)nn1`, `CN1CC[C@H]1COc1ccc(Cl)nn1` is 4.1-fold higher in Ki: 15.4 nM for the first, 63.8 nM for the second.

Compared with `CN1CCC(Oc2ccc(Cl)nn2)C1` (configuration not stated), `CN1CCC[C@H]1COc1ccc(Cl)nn1` is 1.6-fold lower in Ki: 46.4 nM for the first, 29 nM for the second.

Going from `Clc1ccc(OCCN2CCCC2)nn1` to `c1cnc(OCCN2CCCC2)cn1`, the Ki falls from 1300 nM to 560 nM (2.3-fold).

Going from `c1cncc(OCCN2CCCC2)c1` to `c1ccc(OCCN2CCCC2)nc1`, the Ki falls from 240 nM to 160 nM (1.5-fold). The second binds more tightly here.

Going from `CN1CCC(Oc2cnccn2)C1` (configuration not stated) to `CN1CCC(Oc2ccccn2)C1` (configuration not stated), the Ki rises from 359 nM to greater than 10000 nM.

Compared with `CN1CCC(OCc2cccnc2)C1` (configuration not stated), `CN1CCC[C@H]1COc1cccnn1` is 280-fold lower in Ki: 11900 nM for the first, 42.1 nM for the second. The second binds more tightly here.

Going from `CN1CCC[C@@H]1COc1ccc(Cl)nn1` to `CN1CC[C@H]1COc1cccnn1`, the Ki falls from 85.3 nM to 28.2 nM (3-fold).
